# Assay results: patent US12208140B2, “Targeted delivery to beta cells” (THE BROAD INSTITUTE, INC., priority 2017, dated 2025)
# “Also recorded” adds a separate entry of the source. Where two headings read alike, the source gives them in different places.
# T1: DYRK2 (Homo sapiens, UniProt Q92630)
# T1 sequence (Q92630 1-601): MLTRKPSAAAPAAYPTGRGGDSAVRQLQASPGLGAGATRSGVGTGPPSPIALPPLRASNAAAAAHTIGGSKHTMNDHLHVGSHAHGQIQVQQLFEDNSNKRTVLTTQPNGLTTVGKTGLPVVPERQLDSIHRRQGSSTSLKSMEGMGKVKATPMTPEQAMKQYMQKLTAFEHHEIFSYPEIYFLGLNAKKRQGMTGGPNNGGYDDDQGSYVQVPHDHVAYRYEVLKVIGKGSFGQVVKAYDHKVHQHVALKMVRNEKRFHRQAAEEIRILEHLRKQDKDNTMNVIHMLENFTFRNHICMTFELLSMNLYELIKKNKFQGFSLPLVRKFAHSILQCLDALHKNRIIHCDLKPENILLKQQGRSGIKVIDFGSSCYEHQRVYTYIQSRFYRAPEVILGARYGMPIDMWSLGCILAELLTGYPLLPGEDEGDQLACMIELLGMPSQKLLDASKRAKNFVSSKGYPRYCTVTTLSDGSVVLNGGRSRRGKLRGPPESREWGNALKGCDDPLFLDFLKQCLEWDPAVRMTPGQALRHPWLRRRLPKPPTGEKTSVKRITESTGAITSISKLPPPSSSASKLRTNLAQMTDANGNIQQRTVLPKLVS
# B1: rSerpinB1: recombinant human serpinB1, a protease inhibitor that targets elastases (protein, UniProt P30740 1-379, looked up)
# Leukocyte elastase inhibitor: MEQLSSANTRFALDLFLALSENNPAGNIFISPFSISSAMAMVFLGTRGNTAAQLSKTFHFNTVEEVHSRFQSLNADINKRGASYILKLANRLYGEKTYNFLPEFLVSTQKTYGADLASVDFQHASEDARKTINQWVKGQTEGKIPELLASGMVDNMTKLVLVNAIYFKGNWKDKFMKEATTNAPFRLNKKDRKTVKMMYQKKKFAYGYIEDLKCRVLELPYQGEELSMVILLPDDIEDESTGLKKIEEQLTLEKLHEWTKPENLDFIEVNVSLPRFKLEESYTLNSDLARLGVQDLFNSSKADLSGMSGARDIFISKIVHKSFVEVNEEGTEAAAATAGIATFCMLMPEENFTADHPFLFFIRHNSSGSILFLGRFSSP
# B2: inactive N-tagged serpin B1 construct: inactive N-tagged serpin B1 construct from GeneCopoeia (protein, UniProt P30740 1-379, looked up)
# Leukocyte elastase inhibitor: B1 Leukocyte elastase inhibitor
# modifications: N-terminal tag; inactive
# Key:
# CLK1 = CLK1 (Homo sapiens, UniProt P49759); assay: kinase activity profiling, CLK1; type: biochemical
# Sequence of CLK1 (P49759 whole entry): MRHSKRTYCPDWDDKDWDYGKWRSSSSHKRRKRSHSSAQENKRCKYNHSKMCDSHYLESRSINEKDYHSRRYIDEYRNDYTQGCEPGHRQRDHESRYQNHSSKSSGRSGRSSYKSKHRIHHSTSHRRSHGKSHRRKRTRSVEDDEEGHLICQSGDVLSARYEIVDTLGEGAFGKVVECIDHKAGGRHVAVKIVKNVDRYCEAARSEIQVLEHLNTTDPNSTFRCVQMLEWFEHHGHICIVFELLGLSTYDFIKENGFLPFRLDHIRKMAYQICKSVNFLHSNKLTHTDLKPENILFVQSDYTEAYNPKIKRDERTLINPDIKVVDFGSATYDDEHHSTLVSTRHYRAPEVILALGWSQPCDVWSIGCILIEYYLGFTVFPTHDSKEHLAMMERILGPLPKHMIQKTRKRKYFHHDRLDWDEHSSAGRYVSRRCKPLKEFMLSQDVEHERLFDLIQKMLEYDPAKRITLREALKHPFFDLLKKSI
# CLK4 = CLK4 (Homo sapiens, UniProt Q9HAZ1); assay: kinase activity profiling, CLK4; type: biochemical
# Sequence of CLK4 (Q9HAZ1 whole entry): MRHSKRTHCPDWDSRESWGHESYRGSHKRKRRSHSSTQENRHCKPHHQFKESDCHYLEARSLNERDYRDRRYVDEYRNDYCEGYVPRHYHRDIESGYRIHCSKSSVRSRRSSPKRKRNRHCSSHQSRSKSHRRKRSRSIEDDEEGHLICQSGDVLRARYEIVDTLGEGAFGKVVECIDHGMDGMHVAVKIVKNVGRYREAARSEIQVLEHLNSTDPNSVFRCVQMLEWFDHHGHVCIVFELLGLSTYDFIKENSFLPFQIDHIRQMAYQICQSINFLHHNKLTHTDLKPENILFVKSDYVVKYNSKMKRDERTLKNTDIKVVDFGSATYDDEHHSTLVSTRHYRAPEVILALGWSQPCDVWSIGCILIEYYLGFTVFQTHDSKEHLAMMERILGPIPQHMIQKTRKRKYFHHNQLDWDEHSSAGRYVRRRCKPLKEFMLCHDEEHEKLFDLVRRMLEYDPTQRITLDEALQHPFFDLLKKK
# human β-cells [1] = assay: human islet cell-culture EdU proliferation assay; type: cell-based
# From the text: A human islet cell-culture system and proliferation assay developed by Wagner et al. was used to not only of preserve β-cell function over 7-10 days in culture, but also identify conditions that increase β-cell division.[32] The thymidine analog 5-ethinyl-2′-deoxyuridine (EdU) was used, which, when reacted with an azide-conjugated fluorophore, enables rapid and high-quality imaging of cells that have ever gone through S phase.[34] The detection was paired with insulin immunofluorescence, followed by automated imaging and analysis to identify EdU+ins+ cells after compound treatment. Islet cells were incubated with EdU for 6 days, consistent with the low rate of human β-cell proliferation. […] The quality of the assay was verified by using as a positive control adenoviral overexpression of human CDK6 and cyclin D1.[35]
# [38] […] This effect was consistent across >20 human islet donors, irrespective of age, gender, BMI, or cause of death.
# CLK2 = CLK2 (Homo sapiens, UniProt P49760); assay: kinase activity profiling, CLK2; type: biochemical
# Sequence of CLK2 (P49760 whole entry): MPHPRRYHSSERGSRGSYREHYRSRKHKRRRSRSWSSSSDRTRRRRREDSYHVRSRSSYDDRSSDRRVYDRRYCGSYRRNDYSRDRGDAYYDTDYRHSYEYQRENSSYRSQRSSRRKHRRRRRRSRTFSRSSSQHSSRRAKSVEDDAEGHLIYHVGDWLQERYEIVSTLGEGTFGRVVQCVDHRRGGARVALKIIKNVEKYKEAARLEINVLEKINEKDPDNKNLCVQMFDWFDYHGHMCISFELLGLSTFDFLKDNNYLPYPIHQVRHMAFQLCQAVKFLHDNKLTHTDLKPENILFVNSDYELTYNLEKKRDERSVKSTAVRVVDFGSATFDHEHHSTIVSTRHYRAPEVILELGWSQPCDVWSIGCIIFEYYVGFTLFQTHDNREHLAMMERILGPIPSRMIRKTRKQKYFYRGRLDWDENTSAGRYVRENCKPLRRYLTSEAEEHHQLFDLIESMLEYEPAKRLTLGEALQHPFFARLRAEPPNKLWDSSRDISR
# [2] = tested on: liver, adipose, muscle, and kidney tissue; assay: proliferation of other tissues in 5-IT-treated mice; type: in vivo; details: 0.625 mg/kg i.p. twice a week for 3 weeks
# DYRK1B = DYRK1B (Homo sapiens, UniProt Q9Y463); assay: kinase activity profiling, DYRK1B; type: biochemical
# Sequence of DYRK1B (Q9Y463 whole entry): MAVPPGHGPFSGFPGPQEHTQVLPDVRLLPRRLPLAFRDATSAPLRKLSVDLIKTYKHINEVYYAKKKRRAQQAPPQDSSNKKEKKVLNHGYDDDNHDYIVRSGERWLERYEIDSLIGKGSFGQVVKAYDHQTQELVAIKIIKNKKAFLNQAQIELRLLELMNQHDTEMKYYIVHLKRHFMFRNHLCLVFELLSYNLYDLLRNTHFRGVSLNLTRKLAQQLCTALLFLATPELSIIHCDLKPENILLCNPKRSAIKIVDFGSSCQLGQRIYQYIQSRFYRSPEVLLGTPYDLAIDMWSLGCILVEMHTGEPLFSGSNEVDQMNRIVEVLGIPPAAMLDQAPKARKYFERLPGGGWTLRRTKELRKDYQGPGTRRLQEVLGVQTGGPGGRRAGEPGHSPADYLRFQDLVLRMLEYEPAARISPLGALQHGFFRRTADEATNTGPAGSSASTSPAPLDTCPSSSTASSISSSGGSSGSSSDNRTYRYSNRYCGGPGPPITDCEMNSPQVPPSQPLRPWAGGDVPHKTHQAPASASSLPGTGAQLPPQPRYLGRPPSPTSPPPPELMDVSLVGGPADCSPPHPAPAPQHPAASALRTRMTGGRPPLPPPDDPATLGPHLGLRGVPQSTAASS
# DYRK2 = biological target: T1, DYRK2; assay: kinase activity profiling, DYRK2; type: biochemical
# human β-cells [3] = assay: human islet grafts in NSG mice, β-cell replication; type: in vivo, human islets transplanted in NSG mice
# From the text: 1) Establishing a humanized mouse model: The humanized mouse model is established according to Kulkarni et al.[22,23] Briefly, the immunodeficient NOD.Cg-Prkdc^scidIl2rg^tm1Wj1SzJ mouse strain, commonly known as NOD-scid gamma (NSG), combines features of the NOD/ShiLtJ background and […], known as the severe combined immune deficiency mutation (scid), which essentially eliminates adaptive immunity. This strain has utility in studies of hematopoietic and cancer stem cells and of islet transplantation.
# A separate group of mice with human islet transplants were injected with DMSO as vehicle controls, and sham-operated animals were used as an additional control group. The injection was repeated twice a week for 3 weeks. In the final week, we injected BrdU (100 mg/kg) daily for 4 days, and six hours after the last BrdU injection the pancreas was harvested. β-cell replication was assessed using previously described protocols.[23] For sivelestat experiments, osmotic pumps loaded with compound (300 μg/kg/day) were implanted into mice, and were treated for 14 days. Mice were provided BrdU in drinking water and injected i.p. on days 8, 11, and 14. Islets were harvested five hours after the last BrdU injection.
# human β-cells [4] = assay: glucose-stimulated insulin secretion (GSIS) in dissociated islet cells; type: cell-based; details: cells treated for 12 days
# From the text: In the DMSO-treated state, glucose stimulated ˜2-fold increase in insulin secretion in dissociated islet cells. […] Although incompletely understood, the loss of basal secretion may be due to cell-death effects on other cells in the culture system.
# islets = assay: islet fluorescence after intraperitoneal injection of DA-ZP1; type: in vivo; details: single dose 50 mg/kg intraperitoneally, 10-12-week old C57BL/6 mice
# Method: (§1) Next, this probe was incubated in dissociated rat or human islets, co-staining for insulin to identify β-cells and glucagon to identify alpha cells. […] Using confocal microscopy, distinct green-fluorescent vesicles were observed within β-cells (FIG. 3D), showing the high degree of resolution for the localization of this probe. Finally, 10-12-week old C57BL/6 mice were injected intraperitoneally with a single dose of 50 mg/kg DA-ZP1 or DMSO.
# [5] = tested on: β-cells and alpha cells of dissociated rat or human islets; assay: probe incubation in dissociated islets, co-staining for insulin and glucagon; type: cell-based
# Method: as §1
# INS-1E = assay: reaction-based probe (DA-ZP1) fluorescence in a β-cell line; details: compared to other cell types
# Method: (§2) All the imaging experiments were performed in 96 well plate. INS-1E, PANC1, αTC1.6, HEK293T and other cell types were plated in 96 well plate. 70 μL, 4×PFA was added in each well to fix the cells. After 15 minutes, all the wells were washed with PBS. After washing with PBS, 70 μL DAPI (1×) (nuclear stain) was added along with appropriate concentration of DAZP-1. The staining process was continued for 20 minute and 100 μL PBS as was added in each well.
# [6] = tested on: aTC1.6, PANC1, HEK293T and cells of other lineages; assay: reaction-based probe (DA-ZP1) fluorescence in non-β cell types
# Method: as §2
# mouse islets (β-cells) [7] = assay: sivelestat treatment of mouse islets, β-cell proliferation; details: in vivo
# Method: (§3) Next, sivelestat, a small-molecule inhibitor of elastinolytic proteases and thus a partial mimic of serpinB1 activity, was tested for β-cell proliferation. […] Thus, small molecules promote β-cell proliferation in human islets transplanted in vivo by targeting two independent pathways.
# [8] = tested on: liver, skeletal muscle, visceral and subcutaneous adipose tissue, spleen, or kidney; type: in vivo, mouse; details: data not shown
# Method: as §3
# mouse islets (β-cells) [9] = assay: mouse islet culture, Ki67 proliferation; type: cell-based
# From the text: (§4) Liver was found as the source of a secreted factor in this model that can induce β-cell proliferation in mouse and human islets.[24] A proteomics effort using liver, liver explant-conditioned media, hepatocyte-conditioned media, and plasma led to the discovery that serpin B1, a protease inhibitor that targets elastases, is enriched in serum from LIRKO mice (FIG. 10).[1]
# human islets (β-cells) = assay: human islet β-cell proliferation with rSerpinB1; type: cell-based
# From the text: as §4
# [10] = human islet cells, 6 days of treatment
# [11] = 0.625 mg/kg i.p. twice a week for 3 weeks
molecule,measurement,setting,value
"Nc1ncnc2c1c(I)cn2[C@@H]1O[C@H](CO)[C@@H](O)[C@H]1O [5-IT, 5-iodotubercidin]",IC50,CLK1,36 nM
same,IC50,CLK4,14 nM
same,concentrations toxic to cells,human β-cells [1]; human islet cells,greater than 1 μM
same,effect on EdU incorporation / β-cell proliferation,human β-cells [1]; human islet cells,promotes
same,concentration of maximal effect on proliferation,human β-cells [1]; [10],1 µM
same,increase in proliferation (EdU incorporation),human β-cells [1]; [10],~10 fold
same,proliferation of the other cell types in the heterogeneous culture system,human β-cells [1]; non-β cells of human islet culture,did not induce proliferation
same,IC50,CLK2,10 nM
same,"proliferation of liver, adipose, muscle, and kidney tissue, control vs treated mice",[2],No significant differences
same,IC50,DYRK1B,10 nM
same,IC50,DYRK2,6 nM
same,increase in BrdU incorporation in human islet grafts,human β-cells [3]; [11],~5 fold
same,mitosis by Ki67 and pHH3 immunostaining in human islet grafts,human β-cells [3]; [11],enhanced mitosis was confirmed
same,baseline secretion under low-glucose conditions,human β-cells [4],decreased somewhat in a dose-dependent manner
same,glucose-stimulated insulin secretion (GSIS),human β-cells [4],an increase in GSIS was observed
"Nc1ncnc2nc(-c3ccc(N4CCOCC4)nc3)cc(-c3cccc(Br)c3)c12 [ABT-702, 4-amino-5-(3-bromophenyl)-7-(6-morpholinopyridin-3-yl)pyrido[2,3-d]pyrimidine]",effect on EdU incorporation / β-cell proliferation,human β-cells [1]; human islet cells,does not; also recorded: no effect
CC(=O)Oc1c(Cl)cc2c(c1CN(Cc1ccccn1)Cc1ccccn1)Oc1c(cc(Cl)c(OC(C)=O)c1CN(Cc1ccccn1)Cc1ccccn1)C21OC(=O)c2ccccc21 [DA-ZP1],fluorescence in islet sections,islets,Fluorescence was detected
same,overlap between glucagon-positive and zinc probe-positive cells,[5],very little to no overlap
same,overlap between insulin-positive and zinc probe-positive cells,[5],high degree of overlap
same,fluorescence in β-cells (INS-1E),INS-1E,high average fluorescent cell intensity and high % fluorescence-positive cells
same,fluorescence in β-cells (INS-1E),INS-1E; listed as reaction-based probe,highly fluorescent
same,fluorescence / labeling in other cell types,[6],do not observe non-specific labeling
same,fluorescence / labeling in other cell types,[6]; listed as reaction-based probe,minimal background fluorescence
COc1ccc2c(c1)[nH]c1c(C)nccc12 [harmine],EdU+ins+ cells,"human β-cells [1]; 5 and 10 μM, 6-days treatment, human islet cells",dose-dependent increase
same,effect on EdU incorporation / β-cell proliferation,human β-cells [1]; human islet cells,promotes β-cell proliferation in a dose-dependent manner
CC(C)(C)C(=O)Oc1ccc(S(=O)(=O)Nc2ccccc2C(=O)NCC(=O)O)cc1 [sivelestat],β-cell proliferation in mouse islets,mouse islets (β-cells) [7],increased β-cell proliferation
same,"effect on liver, skeletal muscle, visceral and subcutaneous adipose tissue, spleen, or kidney",[8],without a significant effect
same,proliferation of human β-cells (islet grafts),"human β-cells [3]; osmotic pumps 300 μg/kg/day, 14 days",increased proliferation
B1,effect on Ki67+ insulin+ cells,mouse islets (β-cells) [9],dose-dependent effect
same,increase in the percentage of Ki67+ins+ cells,mouse islets (β-cells) [9]; dose of 1 μg/mL,2 fold
same,effect on Ki67+ insulin+ cells,mouse islets (β-cells) [9]; listed as serpinB1,dose-dependent effect
same,effect on Ki67+ insulin+ cells,mouse islets (β-cells) [9]; listed as untagged SerpinB1,promotes
same,β-cell proliferation from human islets,human islets (β-cells),dose-dependent increase
B2,effect on Ki67+ insulin+ cells,mouse islets (β-cells) [9],no impact
